# Patent US10874743B2, “IRAK degraders and uses thereof” (Kymera Therapeutics, Inc., priority 2017, dated 2020)
# Target: T1, IRAK4 (Homo sapiens, UniProt Q9NWZ3)
# T1 sequence (Q9NWZ3 1-460): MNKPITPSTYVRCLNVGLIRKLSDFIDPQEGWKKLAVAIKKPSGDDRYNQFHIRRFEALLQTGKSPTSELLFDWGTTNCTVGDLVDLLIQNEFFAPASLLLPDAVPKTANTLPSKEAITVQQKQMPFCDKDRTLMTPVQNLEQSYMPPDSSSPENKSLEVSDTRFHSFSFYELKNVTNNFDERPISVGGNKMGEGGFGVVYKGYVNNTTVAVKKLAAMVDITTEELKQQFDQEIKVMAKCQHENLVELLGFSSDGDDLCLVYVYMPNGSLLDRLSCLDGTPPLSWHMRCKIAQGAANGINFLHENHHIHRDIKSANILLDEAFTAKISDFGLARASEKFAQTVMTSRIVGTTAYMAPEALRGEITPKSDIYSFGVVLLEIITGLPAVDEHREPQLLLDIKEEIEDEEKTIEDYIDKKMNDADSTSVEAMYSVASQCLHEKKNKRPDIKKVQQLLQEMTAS
# Experiment: OCI-LY-10 degradation assay (western blot, % IRAK4 degraded after 4 hours)
# Format: cell-based
# Design: endogenous in cells; host or cells: OCI-LY10
# Conditions: OCI-LY10 cells, 4 hours; for OCI-LY10 % IRAK4 Degradation (0.01 uM): 0.01 uM compound; for OCI-LY10 % IRAK4 Degradation (0.1 uM): 0.1 uM compound; for OCI-LY10 % IRAK4 Degradation (1 uM): 1 uM compound
# In short: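 IRAK4 loss after 4 h at 37° C was scored A (>50%), B (>20-50%) or C (<20%) from infrared western blots of RIPA lysates, 20-25 μg protein per lane. Compound was applied at 0.003-10 μM final to OCI-LY10 cells cultured in RPMI-1640 with 20% FBS and 55 μM 2-ME.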
Compound,OCI-LY10 % IRAK4 Degradation (0.01 uM),OCI-LY10 % IRAK4 Degradation (0.1 uM),OCI-LY10 % IRAK4 Degradation (1 uM)
CN(CCCCCCc1cccc2c1C(=O)N(C1CCC(=O)NC1=O)C2=O)Cc1ccc(-n2cc(NC(=O)c3coc(-c4ccnc(NCC5CC5)c4)n3)c(C(N)=O)n2)cc1 (stereo not drawn) [I-314],C (<20% degradation),B (>20-50% degradation),B (>20-50% degradation)
CN(CCCCCNCCCc1cccc2c1C(=O)N(C1CCC(=O)NC1=O)C2=O)C(=O)c1ccc(-n2cc(NC(=O)c3coc(-c4ccnc(NCC5CC5)c4)n3)c(C(N)=O)n2)cc1 (stereo not drawn) [I-315],C (<20% degradation),C (<20% degradation),B (>20-50% degradation)
CN(CCCCCCCCCc1cccc2c1C(=O)N(C1CCC(=O)NC1=O)C2=O)Cc1ccc(-n2cc(NC(=O)c3coc(-c4ccnc(NCC5CC5)c4)n3)c(C(N)=O)n2)cc1 (stereo not drawn) [I-316],B (>20-50% degradation),B (>20-50% degradation),B (>20-50% degradation)
NC(=O)c1nn(-c2ccc(CNCCCCCCCCCc3cccc4c3C(=O)N(C3CCC(=O)NC3=O)C4=O)cc2)cc1NC(=O)c1coc(-c2ccnc(NCC3CC3)c2)n1 (stereo not drawn) [I-317],C (<20% degradation),C (<20% degradation),B (>20-50% degradation)
NC(=O)c1nn(-c2ccc(CNCCOCCCc3cccc4c3CN(C3CCC(=O)NC3=O)C4=O)cc2)cc1NC(=O)c1coc(-c2ccnc(NCC(F)(F)F)c2)n1 (stereo not drawn) [I-318],C (<20% degradation),A (>50% degradation),B (>20-50% degradation)
NC(=O)c1nn(-c2ccc(CNCCOCCOCCOCCOCCCc3cccc4c3C(=O)N(C3CCC(=O)NC3=O)C4=O)cc2)cc1NC(=O)c1coc(-c2ccnc(NCC(F)(F)F)c2)n1 (stereo not drawn) [I-322],C (<20% degradation),C (<20% degradation),A (>50% degradation)
NC(=O)c1nn(-c2ccc(CNCCOCCOCCOCCOCC#Cc3cccc4c3C(=O)N(C3CCC(=O)NC3=O)C4=O)cc2)cc1NC(=O)c1coc(-c2ccnc(NCC(F)(F)F)c2)n1 (stereo not drawn) [I-323],B (>20-50% degradation),A (>50% degradation),A (>50% degradation)
NC(=O)c1nn(CCNCCOCCOCCNc2cccc3c2C(=O)N(C2CCC(=O)NC2=O)C3=O)cc1NC(=O)c1coc(-c2ccnc(NCC3CC3)c2)n1 (stereo not drawn) [I-326],B (>20-50% degradation),C (<20% degradation),C (<20% degradation)
O=C1CCC(N2C(=O)c3cccc(NCCOCCN4CCO[C@H](CNCc5ccc(-n6cc(NC(=O)c7coc(-c8ccnc(NCC9CC9)c8)n7)c(C(F)F)n6)cc5)C4)c3C2=O)C(=O)N1 (stereo partly drawn) [I-329],B (>20-50% degradation),A (>50% degradation),A (>50% degradation)
O=C1CCC(N2C(=O)c3cccc(NCCOCCN4CCO[C@H](CNCc5ccc(-n6cc(NC(=O)c7coc(-c8ccnc(NCC9CC9)c8)n7)c(C(F)F)n6)cc5)C4)c3C2=O)C(=O)N1 (stereo partly drawn) [I-330],C (<20% degradation),A (>50% degradation),A (>50% degradation)
NC(=O)c1nn(-c2ccc(C(=O)NCCCCCNCCNc3cccc4c3C(=O)N(C3CCCNC3=O)C4=O)cc2)cc1NC(=O)c1coc(-c2ccnc(NCC(F)(F)F)c2)n1 (stereo not drawn) [I-333],C (<20% degradation),C (<20% degradation),C (<20% degradation)

# Further lines, results first:
OCI-LY10 % IRAK4 Degradation (0.01 uM),OCI-LY10 % IRAK4 Degradation (0.1 uM),OCI-LY10 % IRAK4 Degradation (1 uM),Compound
B (>20-50% degradation),A (>50% degradation),B (>20-50% degradation),NC(=O)c1nn(-c2ccc(CNCCOCCOCCCc3cccc4c3CN(C3CCC(=O)NC3=O)C4=O)cc2)cc1NC(=O)c1coc(-c2ccnc(NCC3CC3)c2)n1 (stereo not drawn) [I-324]
B (>20-50% degradation),A (>50% degradation),A (>50% degradation),NC(=O)c1nn(-c2ccc(CNCCOCCOCCOCCCc3cccc4c3CN(C3CCC(=O)NC3=O)C4=O)cc2)cc1NC(=O)c1coc(-c2ccnc(NCC3CC3)c2)n1 (stereo not drawn) [I-325]
C (<20% degradation),B (>20-50% degradation),A (>50% degradation),Cn1c(=O)n(C2CCC(=O)NC2=O)c2ccc(CCCOCCOCCNCc3ccc(-n4cc(NC(=O)c5coc(-c6ccnc(NCC(F)(F)F)c6)n5)c(C(N)=O)n4)cc3)cc21 (stereo not drawn) [I-327]
A (>50% degradation),A (>50% degradation),A (>50% degradation),Cn1c(=O)n(C2CCC(=O)NC2=O)c2cccc(CCCOCCOCCNCc3ccc(-n4cc(NC(=O)c5coc(-c6ccnc(NCC(F)(F)F)c6)n5)c(C(N)=O)n4)cc3)c21 (stereo not drawn) [I-328]
C (<20% degradation),B (>20-50% degradation),C (<20% degradation),Cn1c(=O)n(C2CCC(=O)NC2=O)c2ccc(CCCOCCOCCNCc3ccc(-n4cc(NC(=O)c5coc(-c6ccnc(NCC7CC7)c6)n5)c(C(F)F)n4)cc3)cc21 (stereo not drawn) [I-331]
C (<20% degradation),C (<20% degradation),A (>50% degradation),O=C1CCC(N2C(=O)c3ccc(NC4CCN(CCOCCOCCNCc5ccc(-n6cc(NC(=O)c7coc(-c8ccnc(NCC9CC9)c8)n7)c(C(F)F)n6)cc5)CC4)cc3C2=O)C(=O)N1 (stereo not drawn) [I-335]
C (<20% degradation),C (<20% degradation),B (>20-50% degradation),O=C1CCC(N2C(=O)c3cccc(N4CCN(CCOCCOCCNCc5ccc(-n6cc(NC(=O)c7coc(-c8ccnc(NCC9CC9)c8)n7)c(C(F)F)n6)cc5)CC4)c3C2=O)C(=O)N1 (stereo not drawn) [I-336]
C (<20% degradation),A (>50% degradation),A (>50% degradation),O=C1CCC(N2C(=O)c3ccc(N4CCN(CCOCCOCCNCc5ccc(-n6cc(NC(=O)c7coc(-c8ccnc(NCC9CC9)c8)n7)c(C(F)F)n6)cc5)CC4)cc3C2=O)C(=O)N1 (stereo not drawn) [I-337]
C (<20% degradation),B (>20-50% degradation),B (>20-50% degradation),O=C1CCC(N2C(=O)c3cccc(NC4CN(CCOCCOCCNCc5ccc(-n6cc(NC(=O)c7coc(-c8ccnc(NCC9CC9)c8)n7)c(C(F)F)n6)cc5)C4)c3C2=O)C(=O)N1 (stereo not drawn) [I-338]
C (<20% degradation),B (>20-50% degradation),A (>50% degradation),O=C1CCC(N2C(=O)c3ccc(NC4CN(CCOCCOCCNCc5ccc(-n6cc(NC(=O)c7coc(-c8ccnc(NCC9CC9)c8)n7)c(C(F)F)n6)cc5)C4)cc3C2=O)C(=O)N1 (stereo not drawn) [I-339]
